Holding throughout (design): species or system mixed lysate of K562, MV4-11, THP-1, NCI-H1155
Assay [1] concerns the target Integrin-linked protein kinase ; ILK ; Q13418 (Homo sapiens, UniProt Q13418). To be noted: DIA-MS residual binding; binder.
For assay [2], the target named is Mitogen-activated protein kinase 14 ; MAPK14-2 ; Q16539-2 (Homo sapiens, UniProt Q16539). To be noted: DIA-MS residual binding; binder.
In assay [3] the target is Tyrosine-protein kinase FRK ; FRK ; P42685 (Homo sapiens, UniProt P42685). To be noted: DIA-MS residual binding; binder.
Assay [4] addresses Serine/threonine-protein kinase SIK2 ; SIK2 ; Q9H0K1 (Homo sapiens, UniProt Q9H0K1). To be noted: DIA-MS residual binding; binder.
The target in assay [5] is Epithelial discoidin domain-containing receptor 1 ; DDR1 ; Q08345 (Homo sapiens, UniProt Q08345). To be noted: binder.
Assay [6] deals with T1, Serine/threonine-protein kinase NLK ; NLK ; Q9UBE8 (Homo sapiens, UniProt Q9UBE8).
T1 sequence (Q9UBE8 1-527): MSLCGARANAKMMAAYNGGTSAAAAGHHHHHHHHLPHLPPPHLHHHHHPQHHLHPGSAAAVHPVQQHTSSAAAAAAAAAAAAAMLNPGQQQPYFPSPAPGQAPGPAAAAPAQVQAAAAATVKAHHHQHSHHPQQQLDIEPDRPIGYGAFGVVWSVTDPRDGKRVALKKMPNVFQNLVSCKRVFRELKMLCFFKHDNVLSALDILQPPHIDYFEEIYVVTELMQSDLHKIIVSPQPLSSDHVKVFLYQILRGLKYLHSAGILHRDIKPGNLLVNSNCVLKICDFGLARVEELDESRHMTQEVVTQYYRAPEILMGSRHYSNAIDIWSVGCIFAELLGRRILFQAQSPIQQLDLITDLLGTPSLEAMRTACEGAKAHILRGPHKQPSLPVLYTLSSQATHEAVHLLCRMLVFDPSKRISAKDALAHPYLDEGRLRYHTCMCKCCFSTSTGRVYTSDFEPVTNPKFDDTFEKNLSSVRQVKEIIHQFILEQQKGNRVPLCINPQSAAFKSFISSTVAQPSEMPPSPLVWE
The conditions noted are these: DIA-MS residual binding; binder.

In assay [7] the target is Ephrin type-A receptor 5 ; EPHA5 ; P54756 (Homo sapiens, UniProt P54756). To be noted: DIA-MS residual binding; binder.
Assay [8] has as its target LIM domain kinase 1 ; LIMK1 ; P53667 (Homo sapiens, UniProt P53667). To be noted: DIA-MS residual binding; binder.
For assay [9], the target named is Ephrin type-A receptor 1 ; EPHA1 ; P21709 (Homo sapiens, UniProt P21709). To be noted: DIA-MS residual binding; binder.
The target in assay [10] is Tyrosine-protein kinase HCK ; HCK ; P08631 (Homo sapiens, UniProt P08631). The conditions noted are these: DIA-MS residual binding; binder.
For assay [11], the target named is Mitogen-activated protein kinase kinase kinase 4 ; MAP3K4 ; Q9Y6R4 (Homo sapiens, UniProt Q9Y6R4). The conditions noted are these: binder.
Assay [12] deals with Tyrosine-protein kinase Yes ; YES1 ; P07947 (Homo sapiens, UniProt P07947). To be noted: binder.
In assay [13] the target is Tyrosine-protein kinase Fgr ; FGR ; P09769 (Homo sapiens, UniProt P09769). To be noted: binder.
Assay [14] concerns the target Tyrosine-protein kinase Fyn ; FYN ; P06241 (Homo sapiens, UniProt P06241). To be noted: DIA-MS residual binding; binder.
In assay [15] the target is Casein kinase I isoform gamma-2 ; CSNK1G2 ; P78368 (Homo sapiens, UniProt P78368). To be noted: DIA-MS residual binding; binder.
Assay [16] concerns the target LIM domain kinase 2 ; LIMK2 ; P53671 (Homo sapiens, UniProt P53671). The conditions noted are these: DIA-MS residual binding; binder.
Assay [17] addresses Tyrosine-protein kinase Fyn ; FYN-2 ; P06241 (Homo sapiens, UniProt P06241). The conditions noted are these: DIA-MS residual binding; binder.

The text below walks through data of paper doi:10.1101/2024.08.13.607785v1 (biorxiv, 2024).

The structures appear in SMILES notation.

Sequence of Tyrosine-protein kinase FRK ; FRK ; P42685 (P42685 whole entry): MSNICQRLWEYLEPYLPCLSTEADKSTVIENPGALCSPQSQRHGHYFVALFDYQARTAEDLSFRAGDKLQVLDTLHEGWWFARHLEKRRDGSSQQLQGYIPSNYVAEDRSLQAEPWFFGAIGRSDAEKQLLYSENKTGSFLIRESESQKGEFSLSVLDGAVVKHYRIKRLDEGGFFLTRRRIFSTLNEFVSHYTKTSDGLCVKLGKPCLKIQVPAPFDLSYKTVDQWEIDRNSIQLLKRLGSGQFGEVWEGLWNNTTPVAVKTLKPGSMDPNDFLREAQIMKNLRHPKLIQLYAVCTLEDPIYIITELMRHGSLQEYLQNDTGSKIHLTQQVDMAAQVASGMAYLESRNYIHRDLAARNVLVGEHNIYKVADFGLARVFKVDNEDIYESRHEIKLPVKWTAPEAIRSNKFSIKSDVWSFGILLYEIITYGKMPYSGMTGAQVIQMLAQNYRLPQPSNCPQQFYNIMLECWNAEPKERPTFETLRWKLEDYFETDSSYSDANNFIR
Sequence of Integrin-linked protein kinase ; ILK ; Q13418 (Q13418 whole entry): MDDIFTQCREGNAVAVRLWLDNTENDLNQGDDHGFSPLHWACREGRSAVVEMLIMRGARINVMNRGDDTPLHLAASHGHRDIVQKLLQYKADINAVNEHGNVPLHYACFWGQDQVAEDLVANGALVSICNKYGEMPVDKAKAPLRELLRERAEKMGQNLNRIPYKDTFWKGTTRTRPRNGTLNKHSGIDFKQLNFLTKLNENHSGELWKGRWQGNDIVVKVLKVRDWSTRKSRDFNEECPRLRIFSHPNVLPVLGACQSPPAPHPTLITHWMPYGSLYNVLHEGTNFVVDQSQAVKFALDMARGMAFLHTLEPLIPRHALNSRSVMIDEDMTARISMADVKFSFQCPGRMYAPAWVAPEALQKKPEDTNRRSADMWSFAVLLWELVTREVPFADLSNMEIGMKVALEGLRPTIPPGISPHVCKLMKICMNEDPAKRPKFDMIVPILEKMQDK
Sequence of Ephrin type-A receptor 5 ; EPHA5 ; P54756 (P54756 whole entry, the tested form may be a part): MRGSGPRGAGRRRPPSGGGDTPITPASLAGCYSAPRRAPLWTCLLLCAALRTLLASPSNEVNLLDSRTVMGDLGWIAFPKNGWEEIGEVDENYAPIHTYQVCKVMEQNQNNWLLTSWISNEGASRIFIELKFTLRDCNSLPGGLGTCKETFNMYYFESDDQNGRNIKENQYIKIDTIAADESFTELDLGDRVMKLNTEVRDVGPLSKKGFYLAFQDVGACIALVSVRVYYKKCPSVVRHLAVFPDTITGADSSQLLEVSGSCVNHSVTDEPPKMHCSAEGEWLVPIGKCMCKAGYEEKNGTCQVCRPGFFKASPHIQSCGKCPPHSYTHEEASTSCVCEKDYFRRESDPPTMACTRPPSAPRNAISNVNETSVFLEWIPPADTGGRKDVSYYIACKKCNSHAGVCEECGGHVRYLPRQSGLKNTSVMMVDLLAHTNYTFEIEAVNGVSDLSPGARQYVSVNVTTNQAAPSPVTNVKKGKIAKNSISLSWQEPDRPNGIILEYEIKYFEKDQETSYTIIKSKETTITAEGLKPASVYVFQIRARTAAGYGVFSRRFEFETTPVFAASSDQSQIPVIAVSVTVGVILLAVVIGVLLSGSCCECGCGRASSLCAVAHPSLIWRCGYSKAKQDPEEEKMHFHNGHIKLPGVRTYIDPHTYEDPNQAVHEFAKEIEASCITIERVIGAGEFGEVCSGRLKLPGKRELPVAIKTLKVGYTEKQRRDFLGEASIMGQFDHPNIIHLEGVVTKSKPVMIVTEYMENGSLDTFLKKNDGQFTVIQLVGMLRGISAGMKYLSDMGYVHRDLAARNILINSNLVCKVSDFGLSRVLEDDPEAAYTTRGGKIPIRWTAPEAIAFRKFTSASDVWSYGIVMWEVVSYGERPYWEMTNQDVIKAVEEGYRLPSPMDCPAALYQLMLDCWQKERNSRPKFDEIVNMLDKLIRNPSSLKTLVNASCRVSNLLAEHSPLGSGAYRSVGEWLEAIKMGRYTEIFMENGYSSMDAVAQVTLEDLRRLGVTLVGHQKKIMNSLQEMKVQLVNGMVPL
Sequence of Mitogen-activated protein kinase 14 ; MAPK14-2 ; Q16539-2 (Q16539 whole entry): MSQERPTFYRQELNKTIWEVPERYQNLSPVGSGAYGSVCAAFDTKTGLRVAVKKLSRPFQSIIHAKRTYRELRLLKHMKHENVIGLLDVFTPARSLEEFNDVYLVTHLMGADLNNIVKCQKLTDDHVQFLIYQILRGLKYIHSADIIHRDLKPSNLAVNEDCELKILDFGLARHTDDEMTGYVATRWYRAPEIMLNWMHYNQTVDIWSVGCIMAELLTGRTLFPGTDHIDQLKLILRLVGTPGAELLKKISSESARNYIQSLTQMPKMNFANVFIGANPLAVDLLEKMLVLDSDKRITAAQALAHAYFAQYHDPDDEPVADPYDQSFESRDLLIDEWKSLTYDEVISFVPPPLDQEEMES
Sequence of LIM domain kinase 2 ; LIMK2 ; P53671 (P53671 whole entry, the tested form may be a part): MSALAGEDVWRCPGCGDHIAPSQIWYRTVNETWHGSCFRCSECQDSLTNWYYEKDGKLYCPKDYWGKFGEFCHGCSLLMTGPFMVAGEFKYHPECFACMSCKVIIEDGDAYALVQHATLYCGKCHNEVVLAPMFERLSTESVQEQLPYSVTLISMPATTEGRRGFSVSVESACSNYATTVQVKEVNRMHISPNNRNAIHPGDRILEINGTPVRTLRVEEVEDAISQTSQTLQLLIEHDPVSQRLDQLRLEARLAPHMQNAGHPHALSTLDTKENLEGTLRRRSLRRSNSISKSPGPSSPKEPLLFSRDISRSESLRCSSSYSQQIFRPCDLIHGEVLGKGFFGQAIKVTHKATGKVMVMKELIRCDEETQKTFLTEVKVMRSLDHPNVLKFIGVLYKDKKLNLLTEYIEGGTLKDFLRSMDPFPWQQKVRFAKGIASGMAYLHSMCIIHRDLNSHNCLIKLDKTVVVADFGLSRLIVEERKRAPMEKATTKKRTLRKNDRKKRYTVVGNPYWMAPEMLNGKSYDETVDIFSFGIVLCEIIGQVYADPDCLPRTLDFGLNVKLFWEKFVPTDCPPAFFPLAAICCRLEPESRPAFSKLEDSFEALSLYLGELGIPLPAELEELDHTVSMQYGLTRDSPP
Sequence of Tyrosine-protein kinase HCK ; HCK ; P08631 (P08631 whole entry): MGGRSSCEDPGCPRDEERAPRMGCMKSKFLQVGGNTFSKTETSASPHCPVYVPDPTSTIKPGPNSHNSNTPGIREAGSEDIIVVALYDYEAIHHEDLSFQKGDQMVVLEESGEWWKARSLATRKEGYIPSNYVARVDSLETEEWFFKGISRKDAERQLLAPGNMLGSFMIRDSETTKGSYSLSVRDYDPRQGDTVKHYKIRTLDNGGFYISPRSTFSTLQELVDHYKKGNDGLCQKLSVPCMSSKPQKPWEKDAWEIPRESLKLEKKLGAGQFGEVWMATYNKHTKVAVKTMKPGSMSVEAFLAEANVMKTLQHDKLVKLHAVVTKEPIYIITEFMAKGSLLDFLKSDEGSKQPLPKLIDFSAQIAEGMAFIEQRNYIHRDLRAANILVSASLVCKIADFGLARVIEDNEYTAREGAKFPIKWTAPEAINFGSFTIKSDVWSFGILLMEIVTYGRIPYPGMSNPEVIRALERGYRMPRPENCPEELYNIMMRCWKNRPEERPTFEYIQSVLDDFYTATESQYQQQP
Sequence of Epithelial discoidin domain-containing receptor 1 ; DDR1 ; Q08345 (Q08345 whole entry, the tested form may be a part): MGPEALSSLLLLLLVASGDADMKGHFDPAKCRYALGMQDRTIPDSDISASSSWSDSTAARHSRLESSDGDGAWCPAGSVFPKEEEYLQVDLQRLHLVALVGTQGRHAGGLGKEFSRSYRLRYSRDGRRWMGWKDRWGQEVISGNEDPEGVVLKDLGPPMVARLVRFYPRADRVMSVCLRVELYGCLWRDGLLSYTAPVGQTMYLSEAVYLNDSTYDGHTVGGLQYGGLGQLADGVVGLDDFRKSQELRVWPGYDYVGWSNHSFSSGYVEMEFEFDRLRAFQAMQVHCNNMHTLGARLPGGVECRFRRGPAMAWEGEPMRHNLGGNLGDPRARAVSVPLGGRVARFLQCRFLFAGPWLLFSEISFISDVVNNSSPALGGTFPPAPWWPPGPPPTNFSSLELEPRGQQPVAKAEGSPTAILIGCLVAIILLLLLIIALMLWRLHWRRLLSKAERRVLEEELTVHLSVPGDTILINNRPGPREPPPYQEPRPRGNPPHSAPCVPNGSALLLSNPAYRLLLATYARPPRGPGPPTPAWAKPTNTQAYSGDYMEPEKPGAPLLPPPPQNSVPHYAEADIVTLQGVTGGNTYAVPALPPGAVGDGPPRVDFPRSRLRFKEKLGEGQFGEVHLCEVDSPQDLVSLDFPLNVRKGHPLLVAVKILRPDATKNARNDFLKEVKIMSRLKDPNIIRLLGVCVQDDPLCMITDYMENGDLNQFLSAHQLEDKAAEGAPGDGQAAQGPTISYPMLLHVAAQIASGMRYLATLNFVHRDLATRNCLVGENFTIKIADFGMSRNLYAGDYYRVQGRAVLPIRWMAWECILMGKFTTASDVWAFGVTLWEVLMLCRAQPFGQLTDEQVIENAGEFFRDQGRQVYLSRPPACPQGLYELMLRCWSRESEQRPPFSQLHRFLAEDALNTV
Sequence of Tyrosine-protein kinase Fgr ; FGR ; P09769 (P09769 whole entry): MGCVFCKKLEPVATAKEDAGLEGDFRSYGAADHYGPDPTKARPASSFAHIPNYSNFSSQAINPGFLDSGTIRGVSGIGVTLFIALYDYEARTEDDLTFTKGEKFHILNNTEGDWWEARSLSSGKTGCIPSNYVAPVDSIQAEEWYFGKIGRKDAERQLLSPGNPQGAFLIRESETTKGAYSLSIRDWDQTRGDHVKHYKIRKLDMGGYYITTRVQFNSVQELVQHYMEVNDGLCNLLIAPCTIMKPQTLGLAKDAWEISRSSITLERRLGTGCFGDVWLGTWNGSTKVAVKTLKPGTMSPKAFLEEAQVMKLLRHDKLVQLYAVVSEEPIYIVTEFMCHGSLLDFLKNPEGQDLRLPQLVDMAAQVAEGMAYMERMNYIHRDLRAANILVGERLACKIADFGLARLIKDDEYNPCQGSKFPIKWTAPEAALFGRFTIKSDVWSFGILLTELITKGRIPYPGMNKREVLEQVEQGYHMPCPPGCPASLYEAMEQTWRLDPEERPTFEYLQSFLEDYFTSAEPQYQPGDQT

Turning to `Cc1nc(Nc2ncc(C(=O)Nc3c(C)cccc3Cl)s2)cc(N2CCN(CCO)CC2)n1` [dasatinib], the “DIA-MS / % Intensity (30 µM/DMSO)” value worked out at 38.96% in assay [1]; 35.75% in assay [2]; 2.249% in assay [3]; 2.882% in assay [4]; 2.942% in [5]; 47.56% in [6]. For the same molecule, the “DIA-MS / % Intensity (30 µM/DMSO)” value in assay [7] is on record as 0.4604%; in [8] it was 33.27%; in assay [9], 39.55%; in assay [10], 2.086%; in assay [11], 31.25%; in [12], 2.565%. In addition, the “DIA-MS / % Intensity (30 µM/DMSO)” value in [13] was determined as 0.4999%; in assay [14] it was 1.145%; in assay [15], 45.01%; in assay [16], 12.29%; in [17], 2.543%.
